US5792882A, “Phenoxyphenyl cyclopentenyl hydroxyureas” (Pfizer Inc., priority 1993, dated 1998)

Assays:
[1] = system: platelet activating factor (PAF) induced lethality; experiment: PAF induced lethality in mice, test compound administered orally; format: in vivo, ICR mice (male); conditions: Mus musculus, oral administration 45 min prior to PAF injection (12 μg/Kg i.v.), mortality 1 hr after PAF
Protocol: 2) In vivo system measuring effects of test compound administered orally against platelet activating factor (PAF) induced lethality in mice
The in vivo potency after oral administration of test compounds to ICR mice (male) was determined using the PAF lethality assay in a similar manner as that described in the following articles: J. M. Young, P. J. Maloney, S. N. Jubb, and J. S. Clark, Prostaglandins, 30, 545 (1985); M. Criscuoli and A. Subissi, Br. J. Pharmac., 90, 203 (1987); and H. Tsunoda, S. Abe, Y. Sakuma, S. Katayama and K. Katayama, Prostaglandins Leukotrienes and Essential Fatty Acids, 39, 291 (1990). PAF was dissolved at a concentration of 1.2 μg/ml in 0.05 mg/ml propranolol-saline containing 0.25% bovine serum albumin (BSA) and injected intravenously into mice at a dose of 12 μg/Kg. Mortality was determined 1 hr after PAF injection. To investigate the effect of 5-LO inhibitors, compounds were dissolved in 5% tween 80, 5% EtOH-saline and administered orally (0.1 ml/10 g) 45 min prior to PAF injection. Linear regression was used to estimate ED50 values.

5-lipoxygenase (LO) = molecular target: T1, 5-lipoxygenase (LO) (Homo sapiens, UniProt P09917); experiment: In vitro assay using heparinized human whole blood (HWB); format: cell-based; conditions: calcium ionophore stimulated, 10 min preincubation at 37° C., read-out: IC50, inhibition of 5-lipoxygenase metabolism of arachidonic acid
T1 construct: Aliquots of heparinized human whole blood (1 ml) from healthy donors; endogenous in cells; host or cells: heparinized human whole blood from healthy donors
T1 sequence (P09917 1-674): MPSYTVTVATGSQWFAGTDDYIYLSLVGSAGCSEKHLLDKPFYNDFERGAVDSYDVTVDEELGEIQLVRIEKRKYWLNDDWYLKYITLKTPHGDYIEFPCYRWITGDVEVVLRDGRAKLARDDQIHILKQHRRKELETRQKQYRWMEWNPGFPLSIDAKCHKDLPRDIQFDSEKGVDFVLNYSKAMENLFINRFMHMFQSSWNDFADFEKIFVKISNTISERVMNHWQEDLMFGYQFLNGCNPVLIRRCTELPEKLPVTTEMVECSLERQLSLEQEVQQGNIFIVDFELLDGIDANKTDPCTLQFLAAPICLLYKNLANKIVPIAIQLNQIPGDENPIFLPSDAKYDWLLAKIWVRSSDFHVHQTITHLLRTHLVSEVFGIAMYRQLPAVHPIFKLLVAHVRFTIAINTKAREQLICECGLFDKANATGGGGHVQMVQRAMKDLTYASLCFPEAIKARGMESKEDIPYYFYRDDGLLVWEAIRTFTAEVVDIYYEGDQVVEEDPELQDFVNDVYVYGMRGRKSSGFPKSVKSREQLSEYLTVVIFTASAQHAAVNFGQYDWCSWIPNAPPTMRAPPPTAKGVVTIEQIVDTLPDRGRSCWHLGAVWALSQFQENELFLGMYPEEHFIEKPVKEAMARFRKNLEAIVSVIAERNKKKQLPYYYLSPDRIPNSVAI
Protocol: 1) In vitro assay using heparinized human whole blood (HWB)
Aliquots of heparinized human whole blood (1 ml) from healthy donors were preincubated with drugs dissolved in dimethyl sulfoxide (final concentration, 0.1%) for 10 min at 37° C., then calcium ionophore […] (60 μM) and Heparapid (2.5%, Sekisui Chemical Co. LTD., Japan) were added and incubations were continued for further 30 min. Reactions were terminated by rapid cooling in an ice bath. Blood-clots induced by Heparapid were removed by centrifugation. Acetonitrile (ACN, 1.5 ml) and PGB2 (200 ng, as internal standard) were added to supernatants. Samples were mixed by Voltex mixer and precipitated proteins were removed by centrifugation. Supernatants were diluted to 15% ACN with water and were loaded onto prewashed Sep-Pak C18 cartridge (Waters Associates, Milford, Miss., USA) and arachidonate metabolites were eluted with 4 ml of 70% methanol. Methanolic extract was evaporated and the residue was then reconstituted in 250 μl of 67% ACN.
ACN reconstituents (100 μl) were injected onto a reversed phase C18 column (Wakosil SC18, 4.6×150 mm, Wako Pure Chemical Industries LTD, Japan). Column temperature was 40° C. HPLC analysis was performed by Hewlett Packard model 1090M HPLC system. The chromatographic was achieved by gradient elution using two different mobile phase ( mobile phase A consisted of 10% ACN, 0.1% trifluoroacetic acid and 0.05% triethylamine; mobile phase B consisted of 80% ACN, 0.1% trifluoroacetic acid and 0.05% triethylamine). Each mobile phase was continuously sparged with helium. The HPLC gradient was programmed as follows (where A+B=100): from 0 to 9.7 min, a linear gradient from 35 to 100% of […] with flow rate of 1 ml/min. Peaks of eluting products were quantitated by UV absorbance (LTB4 and PGB2 at 275 nm; HHT and 5-HETE at 235 nm, respectively) and were corrected by PGB2 recovery. Linear regression was used to estimate IC50 values. […]

SMILES	ED50 [1] [mg/kg]	IC50 (5-lipoxygenase (LO)) [nM]
NC(=O)N(O)C1C=C(c2cccc(Oc3ccccc3)c2)CC1 (single isomer, unassigned; (+)) [Example 2, (+)-N-[3-(3-Phenoxyphenyl)-2-cyclopenten-1-yl]-N-hydroxyurea]	1 to 10	~500
NC(=O)N(O)C1C=C(c2cccc(Oc3ccc(Cl)cc3)c2)CC1 (single isomer, unassigned; (+)) [Example 3, (+)-N-[3-[3-(4-Chlorophenoxy)phenyl]-2-cyclopenten-1-yl]-N-hydroxyurea]	1 to 10	~500
NC(=O)N(O)C1C=C(c2cccc(Oc3ccc(F)cc3)c2)CC1 (single isomer, unassigned; (+)) [Example 1, (+)-N-[3-[3-(4-Fluorophenoxy)phenyl]-2-cyclopenten-1-yl]-N-hydroxyurea]	1 to 10	~500
